Laboratory results reported in patent USRE35053E, “Amines useful in producing pharmaceutically active CNS compounds” (The Upjohn Company, priority 1992, dated 1995).
Counter-ions that a name gives are not always drawn.

Key:
angiogenesis = assay: fertile egg or chick embryo assay of Folkman (inhibition of angiogenesis / tumor growth); assay type: in vivo; conditions: chick embryo; for inhibition of angiogenesis: 50 μg/10 μl with heparin, avascular zone 4 mm or greater
Procedure: According to this procedure compounds which are considered to be "active" (i.e, antiangiogenic) give an avascular zone of 4 mm or greater in some embryos when tested at 50 μg/10 μl in the presence of 50 μg/10 μ of heparin.

[1] = test system: induced mucous secretions; assay: inhibition of mucous secretion assay of Johnson; conditions: for inhibition of mucous secretion: inhibit or block enhancement of induced mucous secretions; for preferred mucous inhibitors per test results: ranking in words
Description: The inhibition of mucous secretion assay of Johnson Int. […] According to this procedure compounds which inhibit or block enhancement of induced mucous secretions when tested are considered to be "active".

[2] = test system: conjugated diene formation in rat brain synaptosomes; assay: Conjugated diene formation assay (lipid peroxidation); assay type: biochemical; conditions: 100 μM (or less) of the drug, active = 50% inhibition or more
Procedure: The formation of conjugated dienes as assayed by Braughler. […] Bucher, Fund.
Synaptosomal suspension (10 μl) is added to 1 ml of physiological (normal) saline containing 1% Lubrol PX (Sigma Chemical Co. St. Louis, Mo.). […] The reaction is started by the rapid addition of 200 μM ferrous ammonium sulfate prepared in argon-purged water. The sample is rapidly mixed and the change in absorbance at 232nm is followed in a Gilford Response Spectrophotometer equipped with a rapid sampler. Due to the rapidity of the reaction, rapid addition of the iron, rapid mixing and sampling are obligatory to the accuracy of the assay. For best results absorbance readings of one/sec should be started within 5 sec following the addition of iron. The initial linear rate of absorbance change during the first 30 sec of reaction are compared with the rate of a reaction containing all reagents except synaptosomes. The difference in rates is the rate of conjugated diene formation. Rates with drug are compared to rates obtained in the absence of drug and the % inhibition is calculated.

arachidonic acid = assay: Arachidonic Acid Antagonism Assay (AAAA); assay type: in vivo, mouse (Charles River male CF-1); conditions: mice; for arachidonic acid antagonism (elevation of LD50 of arachidonic acid): IV, 15 min before sodium arachidonate, outside 95% confidence interval of control LD50
Procedure: While not necessary to determine arachidonic acid antagonism, the above assay has been modified as follows: Charles River male CF-1 mice weighing […] are treated IV with the test compound dissolved in 1.0% Tween-80 and 0.1% hydrochloric acid in distilled water. 0 2 ml total volume. Fifteen minutes later sodium arachidonate (90% pure) in physiological (normal) […] is injected into the tail vein. The LD50 is measured using the Spearman-Karber method with a log dose interval of 0.05 (N-6). Compounds which elevate the LD50 outside of the 95% confidence interval of the control LD50 are considered to be "active".

[3] = test system: MDA formation in rat brain synaptosomes; assay: Malonyldialdehyde (MDA) Formation Assay (lipid peroxidation); assay type: biochemical; conditions: active = 50% inhibition or more at 200 μM or less
Description: The MDA assays of Buege and Aust, Methods in Enzymology, Fleisher and Packer Editors. Academic Press, 1978, New York, Vol LII, p 302-310 and Kohn and Liversedge, J. Pharmacol. Exp. Ther. 82. […] Since iipid peroxidation is involved in the pathophysiology of central nervous system trauma, compounds which inhibit MDA formation are useful in treating the conditions listed below.
While not necessary to determine MDA formation, the above assays have been modified as follows: rat brain synaptosomes are prepared as described in the Example about the conjugated diene assay, except that the final wash of the synaptosomes and final suspension are in physiological (normal) saline in which the pH has been adjusted to 7 0. The synaptosomes are incubated for 10 min at 37° in physiological (normal) saline pH 7.0 (total volume=100 ul) containing; 10 ul synaptosomal suspension. 10% DMSO plus or minus drug. 150 uM Fe^+++ and 50 uM Fe^++. The incubation is started by the rapid addition of iron to the otherwise complete reaction. The iron solutions are prepared fresh as ferric chloride and ferrous ammonium sulfate in argon-purged water. Following the 10 min incubation, the reaction is stopped by the addition of 500 ul ice-cold 12% trichloroacetic acid prepared in 0.5 N hydrochloric acid. Water (300 ul) is then added along with 100 ul of freshly prepared thiobarbituric acid (3.3% in 0.5N sodium hydroxide) and 10 ul of 5mM desferrioxamine. The sample is then heated in a boiling water bath for 20 minutes. The samples are cooled and centrifuged for 15 minutes at 1500 xg and the absorbance of the supernatant fraction is read at 532 nm. The % inhibition of MDA formation is calculated by dividing the absorbance of sample containing drug by the absorbance of samples incubated without drug. Reaction blanks are samples incubated in the absence of iron A compound that inhibits MDA formation by 50% or more at a concentration of 200μM or less is considered "active".

[4] = test system: AcylCoA:Cholesterol Acyltransferase (ACAT); assay: AcylCoA:Cholesterol Acyltransferase (ACAT) inhibition Assay; assay type: cell-based; design: key: compounds which inhibit ACAT activity equal to, or greater than, that of chlorpromazine are considered "active"; conditions: active = equal to or greater than chlorpromazine; Fu5AH cells preferred
Description: ACAT esterifies arterial cholesterol which is a key reaction in the development of atherosclerosis. The procedure of Bell, Can. J. Blochem. 60. […] In the ACAT assay it is preferred to use Fu5AH cells, see Lipids 9, 526 (1974). According to this procedure, compounds which inhibit ACAT activity equal to, or greater than, that of chlorpromazine are considered "active".

interleukin-1 = assay: inhibition of interleukin-1 induced T cell proliferation assay; assay type: cell-based; conditions: active = >30% at 10^-6 M
Description: The inhibition of interleukin-1 induced T cell proliferation assay, Proc. Nat. […] Since people with arthritis make excess interleukin 1, compounds which inhibit the activity of interleukin 1 are useful in the treatment of arthritis. According to this procedure compounds which inhibit the activity of interleukin 1 greater that 30% at 10^-6 M are considered to be "active".

Structure (SMILES)	inhibition of mucous secretion [1]	inhibition of conjugated diene formation [2]	inhibition of MDA formation [3]	inhibition of interleukin 1 (interleukin-1)	other results
CS(=O)(=O)O.C[C@]12CCC(=O)C=C1CC[C@@H]1C2=CC[C@@]2(C)[C@H]1CC[C@]2(O)C(=O)CN1CCN(c2ccccn2)CC1 [Example 2, 17α-Hydroxy-21-[4-(2-pyridinyl)-1piperazinyl]pregna-4,9(11)-diene-3,20di-one methanesulfonate]	demonstrate such activity	demonstrate such activity			% of Embryos with 4 mm or Greater A vascular Zone (angiogenesis; 50 μg/10 μl in the presence of heparin): 85%; preferred mucous inhibitors per test results [1]: preferred mucous inhibitors; arachidonic acid antagonism (elevation of LD50 of arachidonic acid) (arachidonic acid): demonstrate arachidonic acid antagonism
CCN(CC)c1cc(N2CCN(CC(=O)[C@@]3(O)CC[C@H]4[C@@H]5CCC6=CC(=O)CC[C@]6(C)C5=CC[C@@]43C)CC2)nc(N)n1 [Example 4, 21-[4-[2.Amino-6-(diethylamino)-4-pyrimidinyl]1-piperazinyl]-17α-hydroxypregna-4,9(11)-diene-3,20-dione]	demonstrate such activity	demonstrate such activity			arachidonic acid antagonism (elevation of LD50 of arachidonic acid) (arachidonic acid): demonstrate arachidonic acid antagonism
C[C@]12CCC(=O)C=C1CC[C@@H]1C2=CC[C@@]2(C)[C@H]1CC[C@]2(O)C(=O)CN1CCC(O)(c2ccc(C(F)(F)F)cc2)CC1 [Example 5, 17α-Hydroxy-21-[4-hydroxy-4 (4-trifiuoromethyl)phenyl 1-piperidinyl]pregna-4,9(11)-diene-3 20-dione]		demonstrate such activity			
CCN(CC)c1nc(N2CCCCC2)cc(N2CCN(CC(=O)[C@@]3(O)CC[C@H]4[C@@H]5CCC6=CC(=O)CC[C@]6(C)C5=CC[C@@]43C)CC2)n1.Cl.O [Example 17, 17α-Hydroxy-21-[4-[2-(diethylamino)-6-(1-piperidinyl)-4-pyrimidinyl]-1-piperazinyl]pregna-4,9(11)-diene-3,20-dione hydrochloride hydrate]			demonstrate such activity		inhibition of ACAT [4]: active; % of Control LD50 (arachidonic acid; 100 mg/kg, LD50 of sodium arachidonate): 150%
C[C@H]1C[C@@H]2C(=CC[C@@]3(C)[C@H]2CC[C@]3(O)C(=O)CN2CCN(c3cc(N4CCCC4)nc(N4CCCC4)n3)CC2)[C@@]2(C)C=CC(=O)C=C12 [Example 47, 17α-hydroxy-6α-methyl-21-[4-[2,6-bis(1-pyrrolidinyl)-4-pyrimidinyl-1-piperazinyl)pregna-1,4,9(11)-triene-3,20-dione,(E)-2-butenodioate salt]		demonstrate such activity	demonstrate such activity	demonstrate inhibition of interleukin 1	arachidonic acid antagonism (elevation of LD50 of arachidonic acid) (arachidonic acid): demonstrate arachidonic acid antagonism
CS(=O)(=O)O.CS(=O)(=O)O.C[C@@H]1C[C@H]2[C@@H]3CCC4=CC(=O)C=C[C@]4(C)C3=CC[C@]2(C)[C@H]1C(=O)CN1CCN(c2cc(N3CCCC3)nc(N3CCCC3)n2)CC1 [Example 83, 16α-Methyl-21-[4-(2,6-bis(1-pyrrolidinyl)-4-pyrimidinyl]-1-piperazinyl]pregna-1,4,9(11)-triene-3,20-dione dimethane-sulfonate]	demonstrate such activity	demonstrate such activity	demonstrate such activity	demonstrate inhibition of interleukin 1	inhibition of angiogenesis (angiogenesis): demonstrate inhibition of angiogenesis; preferred mucous inhibitors per test results [1]: preferred mucous inhibitors
C[C@@H]1C[C@H]2[C@@H]3CCC4=CC(=O)C=C[C@]4(C)[C@H]3[C@H](O)C[C@]2(C)[C@H]1C(=O)CN1CCN(c2cc(N3CCCC3)nc(N3CCCC3)n2)CC1 [Example 84, 11α-hydroxy-16α-methyl-21-[4-[2,6-bis(1-pyrrolidinyl)-4-pyrimidinyl]-1-piperazinyl]pregna-1,4-diene 3,20-dione]		demonstrate such activity		demonstrate inhibition of interleukin 1	
C[C@@H]1C[C@H]2[C@@H]3CCC4=CC(=O)C=C[C@]4(C)C3=CC[C@]2(C)[C@H]1C(=O)CN1CCN(c2cc(N3CCOCC3)nc(N3CCOCC3)n2)CC1 [Example 86, 16α-methyl-21-[4-[2,6-bis(4-morpholino)-4-pyrimidinyl]-1-piperazinyl]pregna-1,4,9(11)-triene-3,20-dione]		demonstrate such activity	demonstrate such activity	demonstrate inhibition of interleukin 1	inhibition of angiogenesis (angiogenesis): demonstrate inhibition of angiogenesis
C[C@]12CCC(=O)C=C1CC[C@@H]1C2=CC[C@@]2(C)[C@H]1CC[C@]2(O)C(=O)CN1CCN(c2cc(N3CCOCC3)nc(N3CCOCC3)n2)CC1 [Example 105, 21-[4-(2,6-Bis(4-morpholino)-4-pyrimidinyl)-1-piperazinyl]-17α-hydroxypregna-4,9(11)-diene-3,20-dione dihydrochloride, hydrate]	demonstrate such activity			demonstrate inhibition of interleukin 1	inhibition of angiogenesis (angiogenesis): demonstrate inhibition of angiogenesis; preferred mucous inhibitors per test results [1]: preferred mucous inhibitors
C[C@]12C=CC(=O)C=C1CC[C@@H]1C2=CC[C@]2(C)[C@@H](C(=O)CN3CCN(c4cc(N5CCCC5)nc(N5CCCC5)n4)CC3)CC[C@@H]12.Cl.Cl [Example 111, 21-[4-(2,6-Bis(1-pyrrolidinyl)-4-pyrimidinyl)-1-piperazinyl]pregna-1,4,9(11)-triene-3,20-dione dihydrochloride]		demonstrate such activity			
CC(CN1CCN(c2cc(N3CCCC3)nc(N3CCCC3)n2)CC1)[C@H]1CC[C@H]2[C@@H]3CCC4=CC(=O)C=C[C@]4(C)[C@H]3CC[C@]12C.CS(=O)(=O)O.O (stereo partly shown) [Example 112, 21-[4-(2,6-Bis(1-pyrrolidinyl)-4-pyrimidinyl)-1-piperazinyl]-20-methylpregna-1,4-dien-3-one methanesulfonate, hydrate]		demonstrate such activity			
